Measured values published in patent publication EP1268487B1, “TRICYCLIC PROTEIN KINASE INHIBITORS” (Wyeth, priority 2000, dated 2001).
Converted amounts (≈) assume the structure as drawn.

Key:
SKBR3 = experiment: Inhibition of cancer cell growth as measured by cell number (Sulforhodamine B); type: cell-based; conditions: Homo sapiens, SK-BR-3; 48 hours exposure
Method: (§1) Human tumor cell lines were plated in 96-well plates (250 µl/well, 1-6 x 10^4 cells/ml) in RPMI 1640 medium, containing 5% FBS (Fetal Bovine Serum). […] After 48 hours exposure to test compounds, cells were fixed with trichloroacetic acid, and stained with Sulforhodamine B. After washing with trichloroacetic acid, bound dye was solubilized in 10 mM Tris base and optical density was determined using a plate reader. Under conditions of the assay the optical density is proportional to the number of cells in the well. IC50s (concentrations causing 50% inhibition of cell growth) were determined from the growth inhibition plots. The test procedure is described in details by Philip Skehan et. al, J.Natl. Canc. Inst., 82, 1107-1112 (1990). […] Information about some of the cell lines used in these test procedures is available from the American Type Tissue Collection: Cell Lines and Hybridomas, 1994 Reference Guide, 8th Edition. The Her2Neu cell line is a 3T3 line that has been transfected with Her2 receptor kinase.

3T3 = experiment: as above; type: cell-based; conditions: Mus musculus, NIH3T3; 48 hours exposure
Method: as §1

A431 = experiment: as above; type: cell-based; conditions: Homo sapiens, A-431; 48 hours exposure
Method: as §1

Her2Neu = experiment: as above; type: cell-based; conditions: 48 hours exposure; 3T3 line transfected with Her2 receptor kinase
Method: as §1

MDA435 = experiment: as above; type: cell-based; conditions: Homo sapiens, 48 hours exposure
Method: as §1

SW620 = experiment: as above; type: cell-based; conditions: Homo sapiens, SW-620; 48 hours exposure
Method: as §1

c-Met = molecular target: T1, c-Met (Homo sapiens, UniProt P08581); experiment: DELFIA assay for c-Met receptor kinase inhibitors; type: biochemical
T1 construct: The cytoplasmic domain of c-Met was generated by reverse transcriptase-polymerase chain reaction; His tag (from pFastBac-HTc vector; purified on Ni-NTA/Talon); made in house; host or cells: Sf9 insect cells (baculovirus)
T1 sequence (P08581 956-1390 limits assumed): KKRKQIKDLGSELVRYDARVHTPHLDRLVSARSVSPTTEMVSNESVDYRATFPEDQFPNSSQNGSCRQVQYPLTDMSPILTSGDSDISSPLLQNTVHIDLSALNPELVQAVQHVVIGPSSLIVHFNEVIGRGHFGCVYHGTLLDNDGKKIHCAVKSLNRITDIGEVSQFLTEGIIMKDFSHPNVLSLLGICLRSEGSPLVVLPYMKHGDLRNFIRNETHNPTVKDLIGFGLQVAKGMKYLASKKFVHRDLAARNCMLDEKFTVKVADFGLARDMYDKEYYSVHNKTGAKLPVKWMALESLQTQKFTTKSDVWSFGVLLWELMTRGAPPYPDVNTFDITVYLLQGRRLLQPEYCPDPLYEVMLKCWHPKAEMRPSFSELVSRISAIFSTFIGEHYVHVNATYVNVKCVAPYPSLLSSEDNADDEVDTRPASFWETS
Method: The c-Met kinase assay was performed as a DELFIA (dissociation enchanced lanthanide fluorometric immunoassay), an ELISA-like protocol based upon time-resolved fluorometry as described previously [Braunwalder, A. F., Yarwood, D.R., Sills, M.A., and Lipson, K.E., Anal. Biochem. 238, 159-164 (1996)]. The protocol was adopted for the screening of inhibitors of the kinase activity of recombinant c-Met. [Loganzo, F., and. Hardy, C., American Biotechnology Laboratory 16(13), 26-28 (1998)]. The cytoplasmic domain of c-Met was generated by reverse transcriptase-polymerase chain reaction using RNA isolated from human mammary epithelial cells as template, cloned into the pFastBac-HTc vector (Life Technologies) and protein expressed in Sf9 insect cells by baculovirus infection. Protein was purified by imidazole elution from Ni-NTA resin (Invitrogen, Carlsbad, CA) or Talon resin (Clontech, Palo Alto, CA). Various conditions were evaluated for the kinase screening protocol and screening was accomplished with the following method. Polystyrene Maxisorp plates (Nunc) were pre-coated for 1 hour to overnight at room temperature with 5 µg/ml poly(Glu4-Tyr) diluted in Tris-buffered saline (TBS). Plates were washed 3X with TBS. c-Met protein preparation was diluted 1:80 into 0.1% BSA/ 4 mM HEPES. A master mix was prepared consisting of: 1 volume of diluted c-Met, 1 volume of 5X buffer (20 mM HEPES, pH 7.4; 2 mM MnCl2; 100 µM Na3VO4; 1 mM DTT), 0.9 volume of water. Master mix (29 µl) was added to the wells of peptide-coated microtiter plates. For assays where c-Met autophosphorylation was evaluated, plates were uncoated and c-Met was diluted into 4 mM HEPES at 1:40 without BSA. Compounds (1 µl) at various dilutions (1 mM to 0.1 µM) prepared in DMSO were added and mixed well with an automatic piptettor. After incubation 20 minutes at room temperature, the reaction was initiated with 20 µl of 62.5 µM ATP/ 50 mM MgCl2 (final 25 µM ATP/ 20 mM MgCl2 in assay). Reactions were incubated 45 minutes at room temperature. Plates were then washed 3X with 100 µl each of DELFIA wash buffer (Wallac). Antibody binding was performed by adding 75 µl of Europium-conjugated anti-phosphotyrosine diluted 1:2000 in Assay Buffer (Wallac) for 1 hour at room temperature. Plates were washed 3X with DELFIA wash buffer. Detection was done by addition of 100 µl of Enhancement Solution (Wallac). After 30 minutes, plates were read in a Wallac VICTOR-2 time-resolved fluorometer. Inhibition data was reported as europium counts for compound treated wells normalized to control counts. IC50 values were obtained by using log doses of compound and calculated using Data Analysis Toolbox software, version 1.0.2 (MDL Information Systems, Inc.).

Q: For `N#Cc1cnc2cc3c(cc2c1Nc1ccc(F)c(Cl)c1)NCCO3` [Example 7, 9-(3-Chloro-4-fluoroanilino)-2,3-dihydro-1H-[1,4]oxazino[3,2-g]quinoline-8-carbonitrile], which IC50 (SKBR3) is on record?
A: 0.968 µg/mL (≈ 2.73 µM)

Q: What about the IC50 (3T3) of the same molecule?
A: 3.02 µg/mL (≈ 8.51 µM)

Q: And the IC50 (A431)?
A: 0.527 µg/mL (≈ 1.49 µM)

Q: And the IC50 (Her2Neu)?
A: 3.9 µg/mL (≈ 11 µM)

Q: What about the IC50 (MDA435) of the same molecule?
A: 1.43 µg/mL (≈ 4.03 µM)

Q: What about the IC50 (SW620) of the same molecule?
A: 2.9 µg/mL (≈ 8.17 µM)

Q: And the inhibition at 10 µg/mL (c-Met)?
A: 80%
